Publication PMC7466040, “Sevanol and Its Analogues: Chemical Synthesis, Biological Effects and Molecular Docking” (Pharmaceuticals, 2020)

Tests used:
[1] = target: T1, ASIC1a (Rattus norvegicus, UniProt P55926); assay: Competition of sevanol with FRRFa peptide on ASIC1a current (integral currents); format: cell-based
T1 construct: expressed in transfected cells; host or cells: Xenopus laevis oocytes (cRNA injection)
T1 sequence (P55926 1-526): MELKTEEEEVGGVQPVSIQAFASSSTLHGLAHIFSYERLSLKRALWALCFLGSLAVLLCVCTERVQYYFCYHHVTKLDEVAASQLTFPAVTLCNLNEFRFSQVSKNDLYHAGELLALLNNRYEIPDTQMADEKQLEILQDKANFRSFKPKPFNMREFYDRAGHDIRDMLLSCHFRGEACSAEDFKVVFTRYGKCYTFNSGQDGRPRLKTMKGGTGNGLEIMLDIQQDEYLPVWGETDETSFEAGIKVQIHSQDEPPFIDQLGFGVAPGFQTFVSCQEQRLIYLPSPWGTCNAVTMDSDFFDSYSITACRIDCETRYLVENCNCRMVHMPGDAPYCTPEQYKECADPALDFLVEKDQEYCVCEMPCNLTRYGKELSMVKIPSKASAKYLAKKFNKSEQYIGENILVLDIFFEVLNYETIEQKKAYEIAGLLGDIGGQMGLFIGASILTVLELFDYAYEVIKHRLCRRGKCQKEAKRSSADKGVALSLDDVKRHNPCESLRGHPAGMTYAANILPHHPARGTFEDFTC
Text: It is known that RF-amide peptides produce a potentiating effect on ASIC1a by inhibiting the channel’s desensitization in the presence of protons (during acidic stimulation). […] Using molecular docking and site-directed mutagenesis, it has been shown that RF-amide peptides are most likely to bind to ASIC1a in the central vestibule of the chicken channel. […] The peptide worsened the effectiveness of the inhibitory action of sevanol on the channel by 1.5 times, and reduced the Hill coefficient (Figure 3). Thus, it can be assumed that the binding site of sevanol also lies in the region of the central vestibule.
Oocytes were harvested from female frogs anaesthetized with tricaine methane sulfonate (MS222) (0.17% solution), and the surgery was performed in an ice bath to avoid heavy bleeding. Defolliculated stage IV and V cells were injected with 2.5 and 10 ng cRNA, synthesized from PCi plasmids containing the rat ASIC1a and rat ASIC3 isoforms, respectively, using the Nanoliter 2000 microinjection system (World Precision Instruments, USA). The injected oocytes were kept for 2–3 days at 17 to 19 °C, and then for up to 5 days at 15 °C in a ND96 medium containing (in mM) 96 NaCl, 2 KCl, 1.8 CaCl2, 1 MgCl2, and 5 HEPES titrated to pH 7.4 with NaOH supplemented with gentamycin (50 μg/mL). Two-electrode voltage clamp recordings were performed at a holding potential of −50 mV using a GeneClamp 500 amplifier (Axon Instruments), and the data were filtered at 20 Hz and digitized at 100 Hz by an AD converter L780 (LCard, Russia). Microelectrodes were filled with 3 M KCl. The conditioning bath solution was ND96; the pH was adjusted to 7.4. The activating test solution was constructed based on the ND-96 buffer, in which 5 mM HEPES was replaced with 10 mM MES and pH was adjusted to 5.5. A computer-controlled valve system was used to achieve a rapid solution exchange in the recording chamber. A four parameter logistic equation was used for the curve-fitting analysis: F(x) = ((a1 − a2)/(1 + (x/x0)n)) + a2, where x is the concentration of the compound; F(x) is the response value at a given concentration of the compound; a1 is the control response value (fixed at 100%); x0 is the IC50 value; n is the Hill coefficient (slope factor); and a2 is the response value at the maximal inhibition (% of control).
Figure 3 Comparison of sevanol (s706) and the Phe-Arg-Arg-Phe-amide peptide (FRRFa) effects on the ASIC1a current. […] (B) Dose–response ASIC1a inhibitory curves for s706 alone (red line) and for s706 in the presence of 200 µM FRRFa (blue line), determined for integral currents. […]

[2] = test system: ICR male mice; assay: Complete Freund's adjuvant-induced thermal hyperalgesia (hot plate); format: in vivo; details: hot plate 53 °C
Method: Specific pathogen-free outbred ICR male mice (6 to 8 weeks old, weighing 29 to 33 g) were obtained from the Animal Breeding Facility of the Branch of the Shemyakin-Ovchinnikov Institute of Bioorganic Chemistry of the Russian Academy of Sciences (Pushchino). The animals were acclimatized for 2 weeks before the experimental procedures, and were kept in two-corridor barrier rooms under a controlled environment: a temperature of 20 to 24 °C, a relative humidity of 30% to 60%, and a 12 h light cycle. The animals were housed in Type 3 standard polycarbonate cages (820 cm2) on bedding (LIGNOCEL BK 8/15, JRS, Germany), with ad libitum access to feed (SSNIFF V1534-300, Spezialdiaeten, GmbH) and filtered tap water. The mouse cages were also supplied with material for environmental enrichment, i.e., Mouse House (Techniplast, Italy). Sevanol or the vehicle was administered intravenously, intranasally and orally (30 min before testing).
The development of the inflammation and thermal hyperalgesia of the paw was induced by the injection of the oil/saline (1:1) CFA emulsion into the dorsal surface of the hind paw of the mice (20 μL/paw) 24 h before the measurement. Saline (20 μL) was injected into the control mice. The inflamed paw withdrawal latencies to thermal stimulation were measured on a hot plate device (Hot Plate Analgesia Meter, Columbus Instruments) with a set temperature of 53 ± 0.1 °C and a cut-off time of 60 s.
Figure 5 The analgesic and anti-inflammatory effects of sevanol following intravenous, intranasal and per os administration. The effect of sevanol on the acetic acid induced writhing (A–C) and on the mice withdrawal latency on a hot plate in the thermal hyperalgesia test after CFA injection (D–F) upon intravenous (A,D), intranasal (B,E) and oral (C,F) administration. […] The results are presented as the mean ± SD (n = 6–10). The p-values of the sevanol groups vs. the saline group are based on an analysis of variance and on Tukey’s test; * p < 0.05, ** p < 0.005, *** p < 0.001.

worsening of effectiveness of inhibitory action on ASIC1a by FRRFa peptide ([1]; 200 μM FRRFa vs alone): 1.5 times
IC50 ([1]; integral currents, pH 5.5, 15 s pre-incubation, n = 5, read-out: IC50, ASIC1a inhibition, s706 alone): 254 ± 31.2 µM
nH, ASIC1a inhibition in the presence of FRRFa ([1]; integral currents, pH 5.5, + 0.2 mM (200 µM) FRRFa, n = 5): 2.4 ± 0.3
nH, ASIC1a inhibition, s706 alone ([1]; integral currents, pH 5.5, n = 5): 3.1 ± 0.4
Compound: O=C(O)CC(C(=O)O)C(OC(=O)C1=Cc2cc(O)c(O)cc2C(c2ccc(O)c(O)c2)C1C(=O)OC(C(=O)O)C(CC(=O)O)C(=O)O)C(=O)O (stereo not shown) [sevanol]
dose at which reversal of CFA-induced thermal hyperalgesia reached statistical significance, i.n. ([2]; intranasal): 1 mg/kg
dose at which reversal of CFA-induced thermal hyperalgesia reached statistical significance, i.v. ([2]; intravenous): 1 mg/kg
dose at which reversal of CFA-induced thermal hyperalgesia was statistically significant, p.o. ([2]; oral): 0.1 mg/kg
